Data reported in ChEMBL document CHEMBL4507260 (2021).

How the values were obtained:
Details in all cases: Compound concentration 1000.0 nM
[1] = target: Insulin receptor (Homo sapiens) (UniProt P06213)
[2] = target: Phosphatidylinositol 5-phosphate 4-kinase type-2 gamma (Homo sapiens) (UniProt Q8TBX8)
[3] = target: Serine/threonine-protein kinase TAO3 (Homo sapiens) (UniProt Q9H2K8)
[4] = target: AP2-associated protein kinase 1 (Homo sapiens) (UniProt Q2M2I8)
[5] = target: Serine/threonine-protein kinase haspin (Homo sapiens) (UniProt Q8TF76)
Sequence of Serine/threonine-protein kinase haspin (Homo sapiens) (Q8TF76 whole entry): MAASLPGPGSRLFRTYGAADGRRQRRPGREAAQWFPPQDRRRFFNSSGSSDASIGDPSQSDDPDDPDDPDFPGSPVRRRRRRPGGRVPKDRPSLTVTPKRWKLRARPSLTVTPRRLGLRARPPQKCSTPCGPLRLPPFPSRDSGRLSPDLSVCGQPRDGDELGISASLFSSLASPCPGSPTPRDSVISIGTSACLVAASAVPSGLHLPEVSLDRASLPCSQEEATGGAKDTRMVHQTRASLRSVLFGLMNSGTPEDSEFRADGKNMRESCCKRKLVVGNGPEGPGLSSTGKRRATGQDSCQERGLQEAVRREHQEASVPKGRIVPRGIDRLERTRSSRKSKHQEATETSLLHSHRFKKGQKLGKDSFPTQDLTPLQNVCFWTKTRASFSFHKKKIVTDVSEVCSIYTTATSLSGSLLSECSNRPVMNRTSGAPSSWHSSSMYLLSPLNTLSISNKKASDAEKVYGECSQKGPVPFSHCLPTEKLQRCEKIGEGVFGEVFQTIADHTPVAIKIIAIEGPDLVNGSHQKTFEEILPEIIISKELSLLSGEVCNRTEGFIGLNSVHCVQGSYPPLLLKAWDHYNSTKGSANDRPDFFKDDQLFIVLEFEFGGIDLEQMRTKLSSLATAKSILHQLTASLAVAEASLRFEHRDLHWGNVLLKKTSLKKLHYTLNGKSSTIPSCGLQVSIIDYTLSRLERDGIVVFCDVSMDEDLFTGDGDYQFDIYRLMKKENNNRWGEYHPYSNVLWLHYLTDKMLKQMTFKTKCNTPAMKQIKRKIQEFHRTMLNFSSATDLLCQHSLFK

[6] = target: Mitogen-activated protein kinase kinase kinase 11 (Homo sapiens) (UniProt Q16584)
[7] = target: Calcium/calmodulin-dependent protein kinase type II subunit gamma (Homo sapiens) (UniProt Q13555)
Sequence of Calcium/calmodulin-dependent protein kinase type II subunit gamma (Homo sapiens) (Q13555 whole entry): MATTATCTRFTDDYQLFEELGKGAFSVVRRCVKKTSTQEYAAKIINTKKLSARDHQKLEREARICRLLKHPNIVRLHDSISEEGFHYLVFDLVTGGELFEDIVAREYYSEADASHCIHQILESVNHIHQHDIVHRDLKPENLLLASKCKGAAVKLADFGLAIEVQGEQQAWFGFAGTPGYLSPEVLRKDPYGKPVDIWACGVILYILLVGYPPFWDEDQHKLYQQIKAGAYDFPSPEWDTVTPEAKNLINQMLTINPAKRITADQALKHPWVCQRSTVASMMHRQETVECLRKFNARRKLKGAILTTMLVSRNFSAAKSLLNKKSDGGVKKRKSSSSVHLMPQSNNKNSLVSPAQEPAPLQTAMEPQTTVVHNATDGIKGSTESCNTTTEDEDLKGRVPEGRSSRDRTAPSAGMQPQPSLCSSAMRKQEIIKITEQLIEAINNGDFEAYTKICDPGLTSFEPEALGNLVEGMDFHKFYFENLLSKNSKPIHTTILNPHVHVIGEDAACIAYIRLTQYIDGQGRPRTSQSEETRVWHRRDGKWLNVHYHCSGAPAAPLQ

[8] = target: Serine/threonine-protein kinase 38-like (Homo sapiens) (UniProt Q9Y2H1)
[9] = target: Peripheral plasma membrane protein CASK (Homo sapiens) (UniProt O14936)
[10] = target: Serine/threonine-protein kinase PRP4 homolog (Homo sapiens) (UniProt Q13523)
[11] = target: Macrophage colony-stimulating factor 1 receptor (Homo sapiens) (UniProt P07333)
Sequence of Macrophage colony-stimulating factor 1 receptor (Homo sapiens) (P07333 whole entry, canonical isoform): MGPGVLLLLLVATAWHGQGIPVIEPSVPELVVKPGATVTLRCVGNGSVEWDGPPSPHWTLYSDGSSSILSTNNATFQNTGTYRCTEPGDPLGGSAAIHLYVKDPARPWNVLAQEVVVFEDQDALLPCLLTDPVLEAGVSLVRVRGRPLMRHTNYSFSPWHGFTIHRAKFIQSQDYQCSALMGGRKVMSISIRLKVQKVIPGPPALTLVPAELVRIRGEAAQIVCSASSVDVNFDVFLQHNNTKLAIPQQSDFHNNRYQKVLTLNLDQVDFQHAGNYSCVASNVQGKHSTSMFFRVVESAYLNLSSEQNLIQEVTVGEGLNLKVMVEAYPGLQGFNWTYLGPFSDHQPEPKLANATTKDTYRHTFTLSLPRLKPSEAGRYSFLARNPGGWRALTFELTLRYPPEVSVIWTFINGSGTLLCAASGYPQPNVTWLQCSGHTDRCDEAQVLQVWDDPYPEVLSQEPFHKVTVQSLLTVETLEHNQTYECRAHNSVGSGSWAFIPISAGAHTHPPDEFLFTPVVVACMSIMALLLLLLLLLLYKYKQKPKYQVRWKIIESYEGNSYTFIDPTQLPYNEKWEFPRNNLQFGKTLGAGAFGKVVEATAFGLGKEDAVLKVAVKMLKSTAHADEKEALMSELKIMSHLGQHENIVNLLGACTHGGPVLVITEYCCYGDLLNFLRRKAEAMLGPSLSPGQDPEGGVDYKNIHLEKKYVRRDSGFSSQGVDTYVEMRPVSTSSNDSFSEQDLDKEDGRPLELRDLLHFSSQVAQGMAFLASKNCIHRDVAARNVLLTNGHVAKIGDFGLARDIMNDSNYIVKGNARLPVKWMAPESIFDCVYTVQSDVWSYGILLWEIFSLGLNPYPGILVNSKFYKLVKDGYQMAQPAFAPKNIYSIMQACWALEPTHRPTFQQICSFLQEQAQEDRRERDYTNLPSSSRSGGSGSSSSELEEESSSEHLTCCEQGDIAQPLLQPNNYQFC

[12] = tested on: Epidermal growth factor receptor (Homo sapiens), P00533 [UNDEFINED MUTATION]
[13] = target: Macrophage colony-stimulating factor 1 receptor (Homo sapiens) (UniProt P07333); remark: listed apart in the source
[14] = tested on: Phosphatidylinositol 4,5-bisphosphate 3-kinase catalytic subunit alpha isoform (Homo sapiens), P42336 [I800L]
[15] = target: Activin receptor type-2A (Homo sapiens) (UniProt P27037)
[16] = target: Serine/threonine-protein kinase 32C (Homo sapiens) (UniProt Q86UX6)
[17] = tested on: Tyrosine-protein kinase ABL1 (Homo sapiens), P00519 [T315I]
[18] = target: Serine/threonine-protein kinase 16 (Homo sapiens) (UniProt O75716)
[19] = target: Serine/threonine-protein kinase tousled-like 2 (Homo sapiens) (UniProt Q86UE8)
[20] = tested on: Tyrosine-protein kinase ABL1 (Homo sapiens), P00519 [F317L]
[21] = target: Cyclin-dependent kinase 4 (Homo sapiens) (UniProt P11802)
[22] = target: Mitogen-activated protein kinase kinase kinase 6 (Homo sapiens) (UniProt O95382)
[23] = target: Death-associated protein kinase 1 (Homo sapiens) (UniProt P53355)
[24] = target: Protein kinase C delta type (Homo sapiens) (UniProt Q05655)
[25] = tested on: Receptor-type tyrosine-protein kinase FLT3 (Homo sapiens), P36888 [K663Q]
[26] = tested on: Epidermal growth factor receptor (Homo sapiens), P00533 [G719S]
[27] = target: Serine/threonine-protein kinase Nek5 (Homo sapiens) (UniProt Q6P3R8)
[28] = target: Calcium/calmodulin-dependent protein kinase type 1D (Homo sapiens) (UniProt Q8IU85)
[29] = tested on: Receptor-type tyrosine-protein kinase FLT3 (Homo sapiens), P36888 [R834Q]
[30] = target: Serine/threonine-protein kinase DCLK1 (Homo sapiens) (UniProt O15075)
[31] = target: Testis-specific serine/threonine-protein kinase 3 (Homo sapiens) (UniProt Q96PN8)
[32] = target: Mitogen-activated protein kinase kinase kinase 13 (Homo sapiens) (UniProt O43283)
[33] = target: Ephrin type-A receptor 4 (Homo sapiens) (UniProt P54764)
[34] = target: Serine/threonine-protein kinase PAK 6 (Homo sapiens) (UniProt Q9NQU5)
[35] = target: Protein kinase C iota type (Homo sapiens) (UniProt P41743)
[36] = tested on: Tyrosine-protein kinase ABL1 (Homo sapiens), P00519 [T315I]; remark: listed apart in the source
[37] = target: Angiopoietin-1 receptor (Homo sapiens) (UniProt Q02763)
Sequence of Angiopoietin-1 receptor (Homo sapiens) (Q02763 whole entry): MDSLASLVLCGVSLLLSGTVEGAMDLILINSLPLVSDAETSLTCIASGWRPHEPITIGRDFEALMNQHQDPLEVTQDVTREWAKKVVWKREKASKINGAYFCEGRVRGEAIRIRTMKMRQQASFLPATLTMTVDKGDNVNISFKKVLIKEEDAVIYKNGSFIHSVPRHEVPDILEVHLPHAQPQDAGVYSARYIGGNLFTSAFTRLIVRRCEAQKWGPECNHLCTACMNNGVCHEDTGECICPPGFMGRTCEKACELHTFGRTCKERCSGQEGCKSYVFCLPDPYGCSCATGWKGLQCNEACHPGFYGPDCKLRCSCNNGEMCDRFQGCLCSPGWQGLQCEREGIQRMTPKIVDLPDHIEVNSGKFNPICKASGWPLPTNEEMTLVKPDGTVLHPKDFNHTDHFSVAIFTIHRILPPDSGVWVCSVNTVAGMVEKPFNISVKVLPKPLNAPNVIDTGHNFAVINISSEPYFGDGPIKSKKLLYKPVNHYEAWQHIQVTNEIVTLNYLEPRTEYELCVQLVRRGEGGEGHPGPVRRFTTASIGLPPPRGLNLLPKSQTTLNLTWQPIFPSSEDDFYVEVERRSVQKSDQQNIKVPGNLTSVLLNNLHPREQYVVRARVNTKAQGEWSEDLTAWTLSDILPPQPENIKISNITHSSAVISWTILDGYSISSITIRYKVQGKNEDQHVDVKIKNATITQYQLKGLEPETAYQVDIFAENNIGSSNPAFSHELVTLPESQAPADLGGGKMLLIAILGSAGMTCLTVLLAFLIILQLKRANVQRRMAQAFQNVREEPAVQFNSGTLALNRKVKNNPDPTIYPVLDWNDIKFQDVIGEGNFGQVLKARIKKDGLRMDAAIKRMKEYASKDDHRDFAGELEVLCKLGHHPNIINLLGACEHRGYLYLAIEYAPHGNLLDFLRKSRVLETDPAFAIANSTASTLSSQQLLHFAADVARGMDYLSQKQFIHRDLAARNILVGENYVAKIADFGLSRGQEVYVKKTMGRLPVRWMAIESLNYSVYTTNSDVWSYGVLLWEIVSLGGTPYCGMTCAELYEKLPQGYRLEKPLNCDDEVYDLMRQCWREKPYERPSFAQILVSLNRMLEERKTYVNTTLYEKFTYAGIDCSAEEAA

[38] = target: Ephrin type-A receptor 6 (Homo sapiens) (UniProt Q9UF33)
[39] = target: Serine/threonine-protein kinase NIM1 (Homo sapiens) (UniProt Q8IY84)
[40] = target: Cyclin-dependent kinase 9 (Homo sapiens) (UniProt P50750)
[41] = target: Myosin-IIIb (Homo sapiens) (UniProt Q8WXR4)
[42] = target: SRSF protein kinase 3 (Homo sapiens) (UniProt Q9UPE1)
Sequence of SRSF protein kinase 3 (Homo sapiens) (Q9UPE1 whole entry): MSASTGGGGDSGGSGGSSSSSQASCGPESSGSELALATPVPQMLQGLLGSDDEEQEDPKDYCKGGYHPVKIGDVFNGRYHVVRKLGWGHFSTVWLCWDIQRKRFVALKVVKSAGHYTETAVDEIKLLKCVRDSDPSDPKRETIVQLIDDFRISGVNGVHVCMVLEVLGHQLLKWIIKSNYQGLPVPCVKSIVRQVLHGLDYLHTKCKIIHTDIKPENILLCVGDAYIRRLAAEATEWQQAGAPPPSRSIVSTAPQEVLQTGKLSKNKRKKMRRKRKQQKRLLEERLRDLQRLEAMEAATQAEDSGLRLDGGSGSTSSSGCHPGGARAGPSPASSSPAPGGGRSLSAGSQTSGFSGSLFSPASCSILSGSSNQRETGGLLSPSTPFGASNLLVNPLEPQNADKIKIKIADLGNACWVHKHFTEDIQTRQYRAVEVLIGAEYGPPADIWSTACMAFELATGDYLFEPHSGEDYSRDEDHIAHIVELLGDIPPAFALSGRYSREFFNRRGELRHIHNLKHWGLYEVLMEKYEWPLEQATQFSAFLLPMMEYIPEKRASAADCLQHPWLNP

[43] = tested on: Tyrosine-protein kinase ABL1 (Homo sapiens), P00519 [M351T]
[44] = target: Mitogen-activated protein kinase kinase kinase kinase 3 (Homo sapiens) (UniProt Q8IVH8)
[45] = tested on: Phosphatidylinositol 4,5-bisphosphate 3-kinase catalytic subunit alpha isoform (Homo sapiens), P42336 [Q546K]

Measured: residual activity

Sequence of AP2-associated protein kinase 1 (Homo sapiens) (Q2M2I8 whole entry, looked up): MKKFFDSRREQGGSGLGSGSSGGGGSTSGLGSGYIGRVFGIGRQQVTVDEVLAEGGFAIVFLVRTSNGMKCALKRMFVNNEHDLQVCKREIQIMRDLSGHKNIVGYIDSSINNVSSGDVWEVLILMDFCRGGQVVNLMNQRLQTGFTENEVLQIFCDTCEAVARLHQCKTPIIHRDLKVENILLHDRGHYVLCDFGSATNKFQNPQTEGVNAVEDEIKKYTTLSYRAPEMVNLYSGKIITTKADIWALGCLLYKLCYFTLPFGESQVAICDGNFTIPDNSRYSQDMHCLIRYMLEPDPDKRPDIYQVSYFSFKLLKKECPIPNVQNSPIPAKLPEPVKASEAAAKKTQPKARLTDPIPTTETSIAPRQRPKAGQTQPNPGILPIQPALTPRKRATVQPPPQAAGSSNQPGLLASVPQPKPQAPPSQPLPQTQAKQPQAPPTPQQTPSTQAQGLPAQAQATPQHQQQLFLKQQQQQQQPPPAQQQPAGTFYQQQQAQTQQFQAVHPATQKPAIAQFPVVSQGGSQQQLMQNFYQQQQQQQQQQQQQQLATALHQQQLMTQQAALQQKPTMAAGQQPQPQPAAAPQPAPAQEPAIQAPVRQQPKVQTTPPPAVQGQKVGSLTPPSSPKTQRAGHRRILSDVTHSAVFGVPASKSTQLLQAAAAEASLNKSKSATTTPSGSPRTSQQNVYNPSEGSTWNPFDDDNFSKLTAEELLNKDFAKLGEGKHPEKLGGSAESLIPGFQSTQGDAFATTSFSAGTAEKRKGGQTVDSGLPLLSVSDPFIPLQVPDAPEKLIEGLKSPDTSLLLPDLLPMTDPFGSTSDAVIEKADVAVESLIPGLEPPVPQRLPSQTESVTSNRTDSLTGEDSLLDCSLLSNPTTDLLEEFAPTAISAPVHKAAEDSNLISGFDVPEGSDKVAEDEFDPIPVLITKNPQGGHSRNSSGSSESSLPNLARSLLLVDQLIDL

c1ccc(N2CCN(Cc3nc4ccccc4[nH]3)CC2)nc1 [ABT-724]
inactive: [1] 100% | [2] 86% | [3] 86% | [4] 100% | [5] 100% | [6] 100% | [7] 100% | [8] 72% | [9] 97% | [10] 57% | [11] 100% | [12] 100% | [13] 98% | [14] 78% | [15] 100% | [16] 100% | [17] 100% | [18] 87% | [19] 100% | [20] 100% | [21] 100% | [22] 98% | [23] 100% | [24] 100% | [25] 100% | [26] 91% | [27] 100% | [28] 96% | [29] 100% | [30] 100% | [31] 92% | [32] 86% | [33] 100% | [34] 100% | [35] 97% | [36] 100% | [37] 94% | [38] 100% | [39] 100% | [40] 100% | [41] 95% | [42] 100% | [43] 100% | [44] 100% | [45] 100%

CSc1cccnc1N1CCN(Cc2nc3ccccc3[nH]2)CC1 [A-769]
inactive: [1] 85% | [2] 81% | [3] 93% | [4] 100% | [5] 100% | [6] 100% | [7] 100% | [8] 100% | [9] 100% | [10] 100% | [11] 73% | [12] 100% | [13] 100% | [14] 77% | [15] 69% | [16] 71% | [17] 99% | [18] 100% | [19] 100% | [20] 100% | [21] 84% | [22] 92% | [23] 100% | [24] 100% | [25] 93% | [26] 98% | [27] 100% | [28] 100% | [29] 100% | [30] 82% | [31] 98% | [32] 82% | [33] 100% | [34] 100% | [35] 100% | [36] 93% | [37] 100% | [38] 100% | [39] 84% | [40] 97% | [41] 100% | [42] 100% | [43] 94% | [44] 100% | [45] 84%
